Patent publication US20080280952A1 (priority 2004, published 2008)

Biological target: T1, human cannabinoid CB2 receptor (Homo sapiens, UniProt P34972)
T1 construct: expressed in transfected cells; host or cells: Saccharomyces cerevisiae strain MMY23 (cassette integrated at the ura3 locus, GPD promoter)
Assay: Cannabinoid CB2 receptor agonist activity, yeast reporter assay
Type: cell-based
Conditions: for Emax: read-out: efficacy (Emax) at the cloned human cannabinoid CB2 receptor
Description: The cannabinoid CB2 receptor agonist activity of the compounds of formula (I) was determined in accordance with the following experimental method.
Yeast (Saccharomyces cerevisiae) cells expressing the human cannabinoid CB2 receptor were generated by integration of an expression cassette into the ura3 chromosomal locus of yeast strain MMY23. This cassette consisted of DNA sequence encoding the human CB2 receptor flanked by the yeast GPD promoter to the 5′ end of CB2 and a yeast transcriptional terminator sequence to the 3′ end of CB2. MMY23 expresses a yeast/mammalian chimeric G-protein alpha subunit in which the C-terminal 5 amino acids of Gpa1 are replaced with the C-terminal 5 amino acids of human Gαi3 (as described in Brown et al. (2000), Yeast 16:11-22).
Agonists were prepared as 10 mM stocks in DMSO. […] Agonist solutions in DMSO (1% final assay volume) were transferred into black, clear bottom, microtitre plates from NUNC (96- or 384-well). Cells were suspended at a density of 0.2 OD600/ml in SC media lacking histidine, uracil, tryptophan, adenine and leucine and supplemented with 10 mM 3-aminotriazole, 0.1M sodium phosphate pH 7.0, and […] fluorescein di-β-D-glucopyranoside (FDGlu). […] Fluorescence was plotted against compound concentration and iteratively curve fitted using a four parameter fit to generate a concentration effect value. Efficacy (Emax) was calculated from the equation
Equieffective molar ratio (EMR) values were calculated from the equation

T1 sequence (P34972 whole entry): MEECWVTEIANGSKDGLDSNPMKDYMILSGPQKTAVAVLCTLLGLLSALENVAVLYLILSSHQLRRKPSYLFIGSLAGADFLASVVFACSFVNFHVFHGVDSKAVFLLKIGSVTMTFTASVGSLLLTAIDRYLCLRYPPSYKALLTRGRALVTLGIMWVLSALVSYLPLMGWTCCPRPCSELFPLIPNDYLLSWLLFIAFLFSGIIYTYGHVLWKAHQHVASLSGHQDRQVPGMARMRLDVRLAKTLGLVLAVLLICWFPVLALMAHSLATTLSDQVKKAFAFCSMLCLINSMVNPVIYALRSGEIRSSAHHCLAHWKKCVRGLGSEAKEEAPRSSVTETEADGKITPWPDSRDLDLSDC

SMILES	EC50 [nM]	Emax [%]
Cc1c(Nc2cc(C3CC3)c(C(=O)NCC3CCOCC3)cn2)cccc1C(F)(F)F [Example 107, 4-Cyclopropyl-6-(2-methyl-3-trifluoromethyl-phenylamino)-N-(tetrahydro-pyran-4-ylmethyl)-nicotinamide]	300 to 1000	> 50
O=C(NCC1CCOCC1)c1cnc(Nc2cc(F)ccc2Cl)cc1C1CC1 [Example 108, 6-(2-Chloro-5-fluoro-phenylamino)-4-cyclopropyl-N-(tetrahydro-pyran-4-ylmethyl)-nicotinamide]	300 to 1000	> 50
Cc1cccc(Nc2cc(C3CC3)c(C(=O)NCC3CCOCC3)cn2)c1C#N [Example 109, 6-(2-Cyano-3-methyl-phenylamino)-4-cyclopropyl-N-(tetrahydro-pyran-4-ylmethyl)-nicotinamide]	300 to 1000	> 50
Cc1cc(Nc2cc(C3CC3)c(C(=O)NCC3CCOCC3)cn2)ccc1Br [Example 110, 6-(4-Bromo-3-methyl-phenylamino)-4-cyclopropyl-N-(tetrahydro-pyran-4-ylmethyl)-nicotinamide]	300 to 1000	> 50
Cc1ccc(Nc2cc(C3CC3)c(C(=O)NCC3CCOCC3)cn2)cc1F [Example 111, 4-Cyclopropyl-6-(3-fluoro-4-methyl-phenylamino)-N-(tetrahydro-pyran-4-ylmethyl)-nicotinamide]	300 to 1000	> 50
Cc1ccc(Nc2cc(C3CC3)c(C(=O)NCC3CCOCC3)cn2)cc1Cl [Example 112, 6-(3-Chloro-4-methyl-phenylamino)-4-cyclopropyl-N-(tetrahydro-pyran-4-ylmethyl)-nicotinamide]	300 to 1000	> 50
O=C(NCC1CCOCC1)c1cnc(Nc2ccc(F)c(F)c2)cc1C1CC1 [Example 113, 4-Cyclopropyl-6-(3,4-difluoro-phenylamino)-N-(tetrahydro-pyran-4-ylmethyl)-nicotinamide]	300 to 1000	> 50
Cc1ccc(C(F)(F)F)cc1Nc1cc(C2CC2)c(C(=O)NCC2CCOCC2)cn1 [Example 114, 4-Cyclopropyl-6-(2-methyl-5-trifluoromethyl-phenylamino)-N-(tetrahydro-pyran-4-ylmethyl)-nicotinamide]	300 to 1000	> 50
COc1cccc(Nc2cc(C3CC3)c(C(=O)NCC3CCC3)cn2)c1 [Example 115, N-Cyclobutylmethyl-4-cyclopropyl-6-(3-methoxy-phenylamino)-nicotinamide]	300 to 1000	> 50
O=C(NCC1CCC1)c1cnc(Nc2ccc(F)cc2Cl)cc1C1CC1 [Example 116]	300 to 1000	> 50
Cc1cccc(Nc2cc(C3CC3)c(C(=O)NCC3CCCC3)cn2)c1 [Example 117, N-Cyclopentylmethyl-4-cyclopropyl-6-(3-methyl-phenylamino)-nicotinamide]	300 to 1000	> 50
COc1cccc(Nc2cc(C3CC3)c(C(=O)NCC3CCCC3)cn2)c1 [Example 118, N-Cyclopentylmethyl-4-cyclopropyl-6-(3-methoxy-phenylamino)-nicotinamide]	300 to 1000	> 50
O=C(NCC1CCCC1)c1cnc(Nc2cccc(Cl)c2Cl)cc1C1CC1 [Example 119, N-Cyclopentylmethyl-4-cyclopropyl-6-(2,3-dichloro-phenylamino)-nicotinamide]	300 to 1000	> 50
O=C(NCC1CCCC1)c1cnc(Nc2ccc(C(F)(F)F)c(Cl)c2)cc1C1CC1 [Example 120, 6-(3-Chloro-4-trifluoromethyl-phenylamino)-N-cyclopentylmethyl-4-cyclopropyl-nicotinamide]	300 to 1000	> 50
N#Cc1ccc(Nc2cc(C3CC3)c(C(=O)NCC3CCOCC3)cn2)c(F)c1 [Example 121, 6-(4-Cyano-2-fluoro-phenylamino)-4-cyclopropyl-N-(tetrahydro-pyran-4-ylmethyl)-nicotinamide]	300 to 1000	> 50
O=C(NCC1CCCC1)c1cnc(Nc2cccc(F)c2F)cc1C1CC1 [Example 122, N-Cyclopentylmethyl-4-cyclopropyl-6-(2,3-difluoro-phenylamino)-nicotinamide]	300 to 1000	> 50
O=C(NCC1CCC1)c1cnc(Nc2ccc(F)c(C(F)(F)F)c2)cc1C1CC1 [Example 123, N-Cyclobutylmethyl-4-cyclopropyl-6-(4-fluoro-3-trifluoromethyl-phenylamino)-nicotinamide]	300 to 1000	> 50
O=C(NCC1CCOCC1)c1ccc(Nc2cccc(Cl)c2)nc1C1CC1 [Example 124, 6-(3-Chloro-phenylamino)-2-cyclopropyl-N-(tetrahydro-pyran-4-ylmethyl)-nicotinamide]	300 to 1000	> 50
O=C(NCC1CCOCC1)c1ccc(Nc2cccc(C(F)(F)F)c2)nc1C1CC1 [Example 125, 2-Cyclopropyl-N-(tetrahydro-pyran-4-ylmethyl)-6-(3-trifluoromethyl-phenylamino)-nicotinamide]	300 to 1000	> 50
O=C(NCC1CCOCC1)c1ccc(Nc2cccc(Br)c2)nc1C1CC1 [Example 126, 6-(3-Bromo-phenylamino)-2-cyclopropyl-N-(tetrahydro-pyran-4-ylmethyl)-nicotinamide]	300 to 1000	> 50
O=C(NCC1CCOCC1)c1ccc(Nc2cccc(OC(F)(F)F)c2)nc1C1CC1 [Example 127, 2-Cyclopropyl-N-(tetrahydro-pyran-4-ylmethyl)-6-(3-trifluoromethoxy-phenylamino)-nicotinamide]	300 to 1000	> 50
